Marks after values point to notes of the source that are not given here.
What was measured:
Format in all cases: in vivo
[1] = test system: Blumeria graminis f sp. tritici; assay: Test D: wheat powdery mildew, preventive spray on wheat seedlings, visual disease rating
Description: (§1) General protocol for preparing test suspensions for Tests A-E: the test compounds were first dissolved in acetone in an amount equal to 3% of the final volume and then suspended at the desired concentration (in ppm) in acetone and purified water (50/50 mix by volume) containing 250 ppm of the surfactant Trem® 014 (polyhydric alcohol esters). The resulting test suspensions were then used in Tests A-E. Spraying a 200 ppm test suspension to the point of run-off on the test plants was the equivalent of a rate of 800 g/ha.
The test suspension was sprayed to the point of run-off on wheat seedlings. The following day the seedlings were inoculated with a spore dust of Blumeria graminis f sp. tritici, (also known as Erysiphe graminis f sp. tritici, the causal agent of wheat powdery mildew) and incubated in a growth chamber at 20° C. for 8 days, after which time visual disease ratings were made.
(§2) Results for Tests A-E are given in Table A. In the Table, a rating of 100 indicates 100% disease control and a rating of 0 indicates no disease control (relative to the controls). A dash (-) indicates no test results. All results are for 200 ppm except where followed by an asterisk “*” which indicates a 250 ppm test suspension was used or a double asterisk “**” which indicates a 50 ppm test suspension was used.

[2] = test system: Septoria tritici; assay: Test B: wheat leaf blotch, preventive spray on wheat seedlings, visual disease rating
Description: as §1
(§3) The test suspension was sprayed to the point of run-off on wheat seedlings. The following day the seedlings were inoculated with a spore suspension of Septoria tritici (the causal agent of wheat leaf blotch) and incubated in a saturated atmosphere at 24° C. for 48 h, and then moved to a growth chamber at 20° C. for 19 days, after which time visual disease ratings were made.
as §2

[3] = test system: Botrytis cinerea; assay: Test C: tomato Botrytis, preventive spray on tomato seedlings, visual disease rating
Description: as §1
as §3, with “tomato” for “wheat”, “Botrytis cinerea” for “Septoria tritici”, “tomato Botrytis)” for “wheat leaf blotch)”, “20°” for “24°”, “24°” for “20°”, “3” for “19”
as §2

[4] = test system: Puccinia recondita f. sp. tritici; assay: Test A: wheat leaf rust, preventive spray on wheat seedlings, visual disease rating
Description: as §1
as §3, with “Puccinia recondita f. sp.” for “Septoria”, “rust)” for “blotch)”, “20°” for “24°”, “24” for “48”, “7” for “19”
as §2

[5] = 200 ppm test suspension, 100 = 100% disease control, 0 = no control

Row | SMILES | Test D disease control rating ([1]; 250 ppm test suspension (*)) | Test B disease control rating ([2]; 250 ppm test suspension (*)) | Test C disease control rating ([3]; 250 ppm test suspension (*)) | Test A disease control rating ([4]; 250 ppm test suspension (*)) | other results
1 | Cc1nn(C)c(Nc2ccc(F)cc2)c1C1CCC(C)CC1 (stereo not shown) [Compound 64] | 96* % | 58* % | 0* % | 55* % | –
2 | C=C(C)c1c(C)nn(C)c1Oc1ccc(F)cc1Cl [Compound 39] | 13* % | 0* % | 0* % | 15* % | –
3 | Cc1nn(C)c(Nc2ccc(F)cc2Cl)c1C1CCOCC1 [Compound 56] | 99* % | 100* % | 100* % | 55* % | –
4 | CCON=C(C)c1c(C)nn(C)c1N(CC)c1ccc(F)cc1Cl [Compound 29] | 0* % | 14* % | 0* % | 55* % | –
5 | Cc1nn(C)c(Oc2ccc(F)cc2Cl)c1C=NO [Compound 42] | 81* % | 0* % | 7* % | 9* % | –
6 | Cc1nn(C)c(Oc2ccc(F)cc2Cl)c1C1OCC(C)(C)CO1 [Compound 38] | 94* % | 93* % | 0* % | 52* % | –
7 | CCC(C)c1c(C)nn(C)c1Nc1c(F)cc(Cl)cc1F (stereo not shown) [Compound 23, N-(4-chloro-2,6-difluorophenyl)-1,3-dimethyl-4-(1-methylpropyl)-1H-pyrazol-5-amine] | – | – | – | – | Test D disease control rating ([1]; 200 ppm test suspension): 95%; Test C disease control rating ([3]; 200 ppm test suspension): 98%; Test A disease control rating [4, 5]: 68%
8 | Cc1nn(C)c(Nc2c(F)cc(Cl)cc2F)c1C1=CCCCC1C (stereo not shown) [Compound 22] | – | – | – | – | Test D disease control rating ([1]; 200 ppm test suspension): 56%; Test C disease control rating ([3]; 200 ppm test suspension): 99%; Test A disease control rating [4, 5]: 68%
9 | Cc1nn(C)c(Nc2ccc(F)cc2)c1C1CCOCC1 [Compound 57] | 89* % | 44* % | 0* % | 0* % | –
10 | Cc1nn(C)c(Nc2ccc(F)cc2Cl)c1C1CCC(C#N)CC1 (stereo not shown) [Compound 65] | 13* % | 54* % | 0* % | 55* % | –
11 | Cc1nn(C)c(Oc2ccc(F)cc2Cl)c1C(C)O (stereo not shown) [Compound 41] | 46* % | 0* % | 0* % | 0* % | –
12 | Cc1nn(C)c(Nc2ccc(F)cc2Cl)c1C1CCC(C)(C)CC1 [Compound 62] | 96* % | 9* % | 0* % | 68* % | –
13 | C=Cc1c(C)nn(C)c1Oc1ccc(F)cc1Cl [Compound 35] | 26* % | 0* % | 0* % | 8* % | –
14 | Cc1nn(C)c(Oc2ccc(F)cc2Cl)c1C1=NOC(C#N)C1 (stereo not shown) [Compound 55] | 73* % | 0* % | 0* % | 0* % | –
15 | CCON=C(C)c1c(C)nn(C)c1Nc1ccc(F)cc1Cl [Compound 26] | 0* % | 33* % | 0* % | 0* % | –
16 | Cc1nn(C)c(Nc2ccc(F)cc2F)c1C1=CCOCC1 [Compound 58] | 0* % | 25* % | 0* % | 0* % | –
17 | Cc1nn(C)c(Nc2ccc(F)cc2F)c1C1CCC(C)(C)CC1 [Compound 19] | 96* % | 1* % | 0* % | 0* % | –
18 | Cc1nn(C)c(Nc2ccc(F)cc2F)c1C1CCOCC1 [Compound 59] | 98* % | 92* % | 24* % | 41* % | –

Row | SMILES | Test D disease control rating ([1]; 250 ppm test suspension (*)) | Test B disease control rating ([2]; 250 ppm test suspension (*)) | Test C disease control rating ([3]; 250 ppm test suspension (*)) | Test A disease control rating ([4]; 250 ppm test suspension (*)) | other results
19 | CCCON=C(C)c1c(C)nn(C)c1Nc1ccc(F)cc1Cl [Compound 27] | 69* % | 17* % | 0* % | 9* % | –
20 | Cc1nn(C)c(Nc2ccc(F)cc2F)c1C1CCC(C#N)CC1 (stereo not shown) [Compound 63] | 96* % | 55* % | 0* % | 86* % | –
21 | CC(=NOC(C)C)c1c(C)nn(C)c1Nc1ccc(F)cc1Cl [Compound 28] | 0* % | 24* % | 0* % | 32* % | –
22 | CC(=CC(C)C)c1c(C)nn(C)c1Nc1ccc(F)cc1Cl [Compound 31] | 48* % | 6* % | 0* % | 55* % | –
23 | Cc1nn(C)c(C(O)c2ccc(F)cc2F)c1C1CCCCC1 (stereo not drawn) [Compound 12, 4-cyclohexyl-α-(2,4-difluorophenyl)-1,3-dimethyl-1H-pyrazole-5-methanol] | 97* % | 100* % | 61* % | 94* % | –
24 | CC=C(C)c1c(C)nn(C)c1Nc1c(F)cc(Cl)cc1F [Compound 24, N-(4-chloro-2,6-difluorophenyl)-1,3-dimethyl-4-(1-methyl-1-propen-1-yl)-1H-pyrazol-5-amine] | – | – | – | – | Test D disease control rating ([1]; 200 ppm test suspension): 100%; Test B disease control rating ([2]; 200 ppm test suspension): 96%; Test C disease control rating ([3]; 200 ppm test suspension): 85%; Test A disease control rating [4, 5]: 94%
25 | Cc1nn(C)c(Nc2ccc(F)cc2F)c1C1=CCC(C#N)CC1 (stereo not shown) [Compound 18] | 0* % | 79* % | 73* % | 19* % | –
26 | Cc1nn(C)c(Nc2ccc(F)cc2Cl)c1C1=CCC(C)(C)CC1 [Compound 60] | 0* % | 16* % | 0* % | 19* % | –
27 | Cn1nc(Br)c(C2OCCCO2)c1C(O)c1ccc(F)cc1Cl (stereo not shown) [Compound 8] | 72* % | 5* % | 0* % | 0* % | –
28 | Cc1nn(C)c(Oc2ccc(F)cc2Cl)c1C1OCCCO1 [Compound 37] | 63* % | 5* % | 0* % | 52* % | –
29 | CC1=NOC(c2c(C)nn(C)c2Oc2ccc(F)cc2Cl)C1 (stereo not shown) [Compound 40] | 81* % | 36* % | 33* % | 30* % | –
30 | CC(=O)c1c(C)nn(C)c1Nc1ccc(F)cc1Cl [Compound 32] | 0* % | – | 56* % | 19* % | –
31 | Cc1nn(C)c(Nc2ccc(F)cc2Cl)c1C1CCC(C)CC1 (stereo not shown) [Compound 61] | 97* % | 53* % | 0* % | 0* % | –
32 | CCCCC(CC)c1c(C)nn(C)c1Nc1ccc(F)cc1Cl (stereo not shown) [Compound 3] | – | – | – | – | Test D disease control rating ([1]; 200 ppm test suspension): 0%; Test B disease control rating ([2]; 200 ppm test suspension): 0%; Test A disease control rating [4, 5]: 9%
33 | Cc1nn(C)c(Nc2ccc(F)cc2Cl)c1C1=CCOCC1 [Compound 21] | 13* % | 17* % | 42* % | 0* % | –
34 | Cc1nn(C)c(Oc2ccc(F)cc2Cl)c1C1=NOC(C)(C)C1 [Compound 53] | 90* % | 2* % | 0* % | 0* % | –
35 | CON=C(C)c1c(C)nn(C)c1N(C)c1ccc(F)cc1Cl [Compound 33] | – | – | – | – | Test D disease control rating ([1]; 50 ppm test suspension (**)): 0** %; Test B disease control rating ([2]; 50 ppm test suspension (**)): 0** %; Test C disease control rating ([3]; 50 ppm test suspension (**)): 7** %; Test A disease control rating ([4]; 50 ppm test suspension (**)): 17** %
